From the supplement of paper PMC13380429

What was measured:
Settings in all cases: 72 h
Vero E6 [1] = test: relative viability EC50 (midpoint between 100% and the lowest measured viability); higher = less toxic
Caco-2 [2] = test: as above
Calu-3 [3] = test: as above
U2OS [4] = test: as above
HepG2 [5] = test: as above
Vero E6 [6] = test: cell viability relative to DMSO; higher = less toxic
Caco-2 [7] = test: as above
Calu-3 [8] = test: as above
U2OS [9] = test: as above
HepG2 [10] = test: as above
Vero E6 [11] = test: drug sensitivity score (DSS) for viability; higher = more toxic; extreme values may be limits of the assay
Caco-2 [12] = test: as above
Calu-3 [13] = test: as above
U2OS [14] = test: as above
HepG2 [15] = test: as above

Row | Compound | relative viability EC50 (Vero E6 [1]) [µM] | relative viability EC50 (Caco-2 [2]) [µM] | relative viability EC50 (Calu-3 [3]) [µM] | relative viability EC50 (U2OS [4]) [µM] | relative viability EC50 (HepG2 [5]) [µM] | cell viability (Vero E6 [6]; 1 nM) [%] | cell viability (Vero E6 [6]; 10 nM) [%] | cell viability (Vero E6 [6]; 100 nM) [%] | cell viability (Vero E6 [6]; 1000 nM) [%] | cell viability (Vero E6 [6]; 10000 nM) [%] | cell viability (Caco-2 [7]; 1 nM) [%] | cell viability (Caco-2 [7]; 10 nM) [%] | cell viability (Caco-2 [7]; 100 nM) [%] | cell viability (Caco-2 [7]; 1000 nM) [%] | cell viability (Caco-2 [7]; 10000 nM) [%] | cell viability (Calu-3 [8]; 1 nM) [%] | cell viability (Calu-3 [8]; 10 nM) [%] | cell viability (Calu-3 [8]; 100 nM) [%] | cell viability (Calu-3 [8]; 1000 nM) [%] | cell viability (Calu-3 [8]; 10000 nM) [%] | cell viability (U2OS [9]; 1 nM) [%] | cell viability (U2OS [9]; 10 nM) [%] | cell viability (U2OS [9]; 100 nM) [%] | cell viability (U2OS [9]; 1000 nM) [%] | cell viability (U2OS [9]; 10000 nM) [%] | cell viability (HepG2 [10]; 1 nM) [%] | cell viability (HepG2 [10]; 10 nM) [%] | cell viability (HepG2 [10]; 100 nM) [%] | cell viability (HepG2 [10]; 1000 nM) [%] | cell viability (HepG2 [10]; 10000 nM) [%] | drug sensitivity score (Vero E6 [11]) | drug sensitivity score (Caco-2 [12]) | drug sensitivity score (Calu-3 [13]) | drug sensitivity score (U2OS [14]) | drug sensitivity score (HepG2 [15])
1 | C=C1/C(=C\C=C2/CCC[C@]3(C)[C@@H]([C@H](C)CCCC(C)C)CC[C@@H]23)C[C@@H](O)C[C@@H]1O [alfacalcidol] | > 10 | > 10 | > 10 | > 10 | > 10 | 90.2 | 98.3 | 92.2 | 97.1 | 101 | 98.2 | 98.1 | 92.5 | 85 | 85.9 | 90.9 | 94.3 | 99.6 | 87.5 | 101 | 94.1 | 93.7 | 99 | 89.1 | 91.5 | 91.4 | 105 | 98.4 | 108 | 102 | 0 | 1.5 | 0 | 0 | 0
2 | Cc1c(CC(C)(C)C(=O)O)n(Cc2ccc(Cl)cc2)c2ccc(F)cc12 | > 10 | > 10 | > 10 | > 10 | > 10 | 98.3 | 97.5 | 95.2 | 101 | 108 | 91.9 | 106 | 98.5 | 97.6 | 99 | 104 | 102 | 96.1 | 95.9 | 88 | 98.7 | 99.4 | 103 | 96.4 | 99.7 | 97.2 | 109 | 93.7 | 112 | 110 | 0 | 0 | 0 | 0 | 0
3 | O=c1[nH]cnc2nc[nH]c12 [hypoxanthine] | > 10 | > 10 | > 10 | > 10 | > 10 | 105 | 105 | 102 | 104 | 96.5 | 101 | 87 | 102 | 103 | 112 | 98.1 | 90.3 | 102 | 95.4 | 102 | 98 | 97.8 | 102 | 102 | 113 | 100 | 102 | 97.7 | 95.5 | 94 | 0 | 0 | 0 | 0 | 0
4 | N[C@@H]1CCN(c2cccnc2)C1 [ABT-202] | > 10 | > 10 | > 10 | > 10 | > 10 | 102 | 97.4 | 104 | 94.5 | 108 | 101 | 102 | 96 | 95.7 | 106 | 93.1 | 90.3 | 99.8 | 97.5 | 99.3 | 96.1 | 98.8 | 96.1 | 102 | 103 | 97.8 | 99 | 104 | 105 | 109 | 0 | 0 | 0 | 0 | 0
5 | CCc1nc2ccc(Cl)cn2c1C(=O)NCc1ccc(N2CCC(c3ccc(OC(F)(F)F)cc3)CC2)cc1 [Q-203] | > 10 | > 10 | > 10 | > 10 | > 10 | 107 | 100 | 99.9 | 98.8 | 96.5 | 97.3 | 95.9 | 97.1 | 93.5 | 85.3 | 99.7 | 100 | 104 | 99.6 | 104 | 98.6 | 101 | 97.8 | 97.4 | 99.8 | 106 | 108 | 92.1 | 100 | 86.8 | 0 | 0.1 | 0 | 0 | 0.1
6 | NC(=O)CN1CC(O)CC1=O (stereo not given) [oxiracetam] | > 10 | > 10 | > 10 | > 10 | > 10 | 98.1 | 101 | 104 | 99.2 | 97.1 | 98.9 | 111 | 94.8 | 99.1 | 101 | 101 | 98 | 102 | 93.9 | 102 | 107 | 103 | 97.5 | 100 | 98.9 | 92.6 | 101 | 95.8 | 104 | 94.8 | 0 | 0 | 0 | 0 | 0
7 | CN1CCC[C@@H]1CCSc1ccc(O)cc1 [SIB-1553A] | > 10 | > 10 | > 10 | > 10 | > 10 | 106 | 95.7 | 97.5 | 96 | 104 | 94.4 | 100 | 99.7 | 102 | 105 | 98.7 | 103 | 98.6 | 91.6 | 99.3 | 97.9 | 101 | 97.1 | 101 | 106 | 95 | 88.9 | 95.4 | 88.1 | 111 | 0 | 0 | 0 | 0 | 0
